{"source": "patent US5919761A", "about": "“Peptides for heparin and low molecular weight heparin anticoagulation reversal” (The Board of Regents of the University of Michigan, priority 1995, dated 1999)", "key": {"LMWH (LHN-1, Logiparin)": {"tested_on": "LMWH (LHN-1, Logiparin)", "experiment": "Percent reversal of LMWH anticoagulation, agents administered at different rates, canine study", "assay_type": "in vivo, dogs", "experimental": "Anticoagulation reversal was assessed by a number of standard coagulation tests performed upon samples of venous blood in the manner described hereinabove. Measurements were made 3 minutes prior to heparin reversal (baseline) and 3 minutes, 10 minutes, and 30 minutes post-administration of the heparin reversal agent."}, "[1]": {"experiment": "Maximum hemodynamic changes and total toxicity score after Enoxaparin reversal, canine study", "settings": "dogs, agent over 10 seconds"}, "[2]": {"experiment": "Maximum hemodynamic changes and total toxicity score after standard heparin reversal, cell adhesion ligand analogs, canine study", "settings": "dogs, agent over 10 seconds"}, "[3]": {"experiment": "Hemodynamic studies and total toxicity score after LMWH reversal, canine study", "settings": "dogs, Logiparin"}, "[4]": {"experiment": "Platelet and white cell counts after standard heparin reversal, canine study", "assay_type": "in vivo", "settings": "dogs, 3 minutes post-reversal, resolved by about 30 minutes", "experimental": "Anticoagulation reversal was assessed by a number of standard coagulation tests performed upon samples of venous blood: activated clotting time (ACT), prothrombin time (PT), activated partial thromboplastin time (aPTT), thrombin clotting time (TCT), heparin concentration by assay for FXa inhibitory activity (FXa), white cell count (WBC), and platelet counts (PLT). Measurements were made 3 minutes prior to heparin reversal (baseline) and 3 minutes and 30 minutes post-administration of the heparin reversal agent. The \"Heparin\" row sets forth the observed reversal as a consequence of expected heparin metabolism or degradation alone."}, "[5]": {"settings": "administered over 10 sec, 3 min"}, "[6]": {"settings": "administered over 10 sec, 10 min"}, "[7]": {"settings": "administered over 10 sec, 30 min"}, "[8]": {"settings": "administered over 3 min, 10 min"}, "[9]": {"settings": "administered over 3 min, 30 min"}}}
{"substance": "PR4 S3 RPVR5 PRVSR6 G2 R4 [Protamine [+21], reference compound]", "values": [{"measurement": "Percent reversal of LMWH anticoagulation, FNa", "setting": "LMWH (LHN-1, Logiparin); [5]", "value": 96, "unit": "%"}, {"measurement": "Percent reversal of LMWH anticoagulation, FXa", "setting": "LMWH (LHN-1, Logiparin); [5]", "value": 63, "unit": "%"}, {"measurement": "Percent reversal of LMWH anticoagulation, TCT", "setting": "LMWH (LHN-1, Logiparin); [5]", "value": 99, "unit": "%"}, {"measurement": "Percent reversal of LMWH anticoagulation, ACT", "setting": "LMWH (LHN-1, Logiparin); [6]", "value": 83, "unit": "%"}, {"measurement": "Percent reversal of LMWH anticoagulation, FXa", "setting": "LMWH (LHN-1, Logiparin); [6]", "value": 45, "unit": "%"}, {"measurement": "Percent reversal of LMWH anticoagulation, TCT", "setting": "LMWH (LHN-1, Logiparin); [6]", "value": 98, "unit": "%"}, {"measurement": "Percent reversal of LMWH anticoagulation, ACT", "setting": "LMWH (LHN-1, Logiparin); [7]", "value": 78, "unit": "%"}, {"measurement": "Percent reversal of LMWH anticoagulation, FNa", "setting": "LMWH (LHN-1, Logiparin); [7]", "value": 86, "unit": "%"}, {"measurement": "Percent reversal of LMWH anticoagulation, TCT", "setting": "LMWH (LHN-1, Logiparin); [7]", "value": 96, "unit": "%"}, {"measurement": "Percent reversal of LMWH anticoagulation, FNa", "setting": "LMWH (LHN-1, Logiparin); administered over 3 min, 3 min", "value": 99, "unit": "%"}, {"measurement": "Percent reversal of LMWH anticoagulation, FXa", "setting": "LMWH (LHN-1, Logiparin); administered over 3 min, 3 min", "value": 68, "unit": "%"}, {"measurement": "Percent reversal of LMWH anticoagulation, TCT", "setting": "LMWH (LHN-1, Logiparin); administered over 3 min, 3 min", "value": 100, "unit": "%"}, {"measurement": "Percent reversal of LMWH anticoagulation, ACT", "setting": "LMWH (LHN-1, Logiparin); [8]", "value": 87, "unit": "%"}, {"measurement": "Percent reversal of LMWH anticoagulation, FNa", "setting": "LMWH (LHN-1, Logiparin); [8]", "value": 98, "unit": "%"}, {"measurement": "Percent reversal of LMWH anticoagulation, FXa", "setting": "LMWH (LHN-1, Logiparin); [8]", "value": 53, "unit": "%"}, {"measurement": "Percent reversal of LMWH anticoagulation, TCT", "setting": "LMWH (LHN-1, Logiparin); [8]", "value": 99, "unit": "%"}, {"measurement": "Percent reversal of LMWH anticoagulation, ACT", "setting": "LMWH (LHN-1, Logiparin); [9]", "value": 80, "unit": "%"}, {"measurement": "Percent reversal of LMWH anticoagulation, FNa", "setting": "LMWH (LHN-1, Logiparin); [9]", "value": 92, "unit": "%"}, {"measurement": "Percent reversal of LMWH anticoagulation, FXa", "setting": "LMWH (LHN-1, Logiparin); [9]", "value": 45, "unit": "%"}, {"measurement": "Percent reversal of LMWH anticoagulation, TCT", "setting": "LMWH (LHN-1, Logiparin); [9]", "value": 98, "unit": "%"}, {"measurement": "Percent reversal of LMWH anticoagulation, ACT", "setting": "LMWH (LHN-1, Logiparin); dogs, Logiparin, agent administered over 10 sec, 3 min post-administration", "value": 96, "unit": "%"}, {"measurement": "Percent reversal of LMWH anticoagulation, ACT", "setting": "LMWH (LHN-1, Logiparin); dogs, Logiparin, agent administered over 3 min, 3 min post-administration", "value": 99, "unit": "%"}, {"measurement": "Maximum hemodynamic change, Mean BP", "setting": "[1]; Enoxaparin 100 IU/kg, 5 minutes", "value": -7, "unit": "mm Mercury"}, {"measurement": "Maximum hemodynamic change, CO", "setting": "[1]; Enoxaparin, 5 minutes", "value": -23, "unit": "%"}, {"measurement": "Maximum hemodynamic change, HR", "setting": "[1]; Enoxaparin, 5 minutes", "value": -17, "unit": "beats/min"}, {"measurement": "Maximum hemodynamic change, VO2", "setting": "[1]; Enoxaparin, 5 minutes", "value": -23, "unit": "%"}, {"measurement": "Total Toxicity Score (TTS)", "setting": "[1]; Enoxaparin, listed as Prot[+21]", "value": -5.77}, {"measurement": "Total Toxicity Score (TTS)", "setting": "[1]; Enoxaparin, listed as [+21] n-protamine", "value": "-5.77 ± 3.46"}, {"measurement": "Maximum hemodynamic change, Mean BP", "setting": "[2]; standard heparin 150 IU/kg IV, 5 minutes", "value": -31, "unit": "mm Mercury"}, {"measurement": "Maximum hemodynamic change, CO", "setting": "[2]; standard heparin, 5 minutes", "value": -36, "unit": "%"}, {"measurement": "Maximum hemodynamic change, HR", "setting": "[2]; standard heparin, 5 minutes", "value": -27, "unit": "beats/min"}, {"measurement": "Maximum hemodynamic change, VO2", "setting": "[2]; standard heparin, 5 minutes", "value": -32, "unit": "%"}, {"measurement": "Total Toxicity Score", "setting": "[2]; standard unfractionated heparin", "value": "-8.02 ± 5.20"}, {"measurement": "maximum mean increase in pulmonary artery diastolic (PAD) pressure", "setting": "[3]", "value": "+10 mm Mercury"}, {"measurement": "maximum mean increase in pulmonary artery systolic (PAS) pressure", "setting": "[3]", "value": "+10 mm Mercury"}, {"measurement": "ΔHR", "setting": "[3]", "value": -18, "unit": "beats per minute"}, {"measurement": "ΔMAP", "setting": "[3]", "value": -32, "unit": "mm Mercury"}, {"measurement": "Total Toxicity Score", "setting": "[3]; first 5 minutes after reversal, 1:1 peptide to LMWH", "value": "-7.6 ± 4.8"}, {"measurement": "ΔCO", "setting": "[3]; maximum percent change", "value": -32, "unit": "%"}, {"measurement": "ΔVO2", "setting": "[3]; maximum percent change", "value": -26, "unit": "%"}, {"measurement": "platelet counts", "setting": "[4]", "value": "thrombocytopenia"}]}
